Laboratory results as given in PubChem BioAssay AID1645861 (Buhrlage Lab, Dana-Farber Cancer Institute and Novartis …, 2021).
Active and inactive are the calls of the source.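 The calls were made as follows: active = compounds whose peak USP7 inhibition across the dose series reached 30% or more; inactive = the rest.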

Molecular target: Ubiquitin carboxyl-terminal hydrolase 7 (Homo sapiens) (UniProt Q93009)
Assay: Ubiquitin-specific protease 7 DUB inhibitors, concentration-effect, biochemical, validation of primary hits (AID 1645861)
Conditions: purified USP7, Ub-rhodamine cleavage fluorescence, 60 min

Sequence of Ubiquitin carboxyl-terminal hydrolase 7 (Homo sapiens) (Q93009 whole entry, looked up): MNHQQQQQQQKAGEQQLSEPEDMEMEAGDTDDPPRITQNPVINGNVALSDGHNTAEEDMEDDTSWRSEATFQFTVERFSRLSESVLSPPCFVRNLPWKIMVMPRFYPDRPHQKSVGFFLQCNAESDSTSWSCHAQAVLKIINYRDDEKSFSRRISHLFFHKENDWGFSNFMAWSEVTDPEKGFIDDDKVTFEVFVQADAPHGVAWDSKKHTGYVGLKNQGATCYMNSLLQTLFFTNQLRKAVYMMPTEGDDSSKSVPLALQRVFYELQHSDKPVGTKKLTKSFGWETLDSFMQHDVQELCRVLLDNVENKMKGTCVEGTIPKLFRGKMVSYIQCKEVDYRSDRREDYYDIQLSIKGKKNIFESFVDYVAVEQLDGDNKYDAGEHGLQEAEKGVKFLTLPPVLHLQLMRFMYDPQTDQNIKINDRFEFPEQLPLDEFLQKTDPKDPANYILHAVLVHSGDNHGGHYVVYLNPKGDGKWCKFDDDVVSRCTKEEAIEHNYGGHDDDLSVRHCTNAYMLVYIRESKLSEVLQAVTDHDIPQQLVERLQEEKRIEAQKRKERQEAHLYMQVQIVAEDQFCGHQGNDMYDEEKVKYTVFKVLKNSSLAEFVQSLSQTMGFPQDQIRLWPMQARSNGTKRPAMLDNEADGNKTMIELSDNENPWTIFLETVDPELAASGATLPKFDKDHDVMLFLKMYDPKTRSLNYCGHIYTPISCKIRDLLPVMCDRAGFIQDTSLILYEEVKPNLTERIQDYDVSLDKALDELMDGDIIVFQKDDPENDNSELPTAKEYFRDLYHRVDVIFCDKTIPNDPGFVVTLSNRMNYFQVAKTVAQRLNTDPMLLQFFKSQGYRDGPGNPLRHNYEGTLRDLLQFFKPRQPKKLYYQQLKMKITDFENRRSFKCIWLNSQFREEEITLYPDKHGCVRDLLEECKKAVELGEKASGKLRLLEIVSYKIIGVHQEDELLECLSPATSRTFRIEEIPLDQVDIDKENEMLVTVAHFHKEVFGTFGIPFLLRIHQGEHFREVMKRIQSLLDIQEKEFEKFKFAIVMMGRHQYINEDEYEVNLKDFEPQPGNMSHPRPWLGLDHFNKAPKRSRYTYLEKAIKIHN

Row | IC50 | Structure (SMILES)
1 | > 50 µM (inactive) | O=C(Nc1cc(F)c2nc(N3CCOCC3)ccc2c1)C1CC1
2 | 45.4 µM | Cc1ccc(NC(=O)Cc2nnc3cc(-c4nc(C)no4)ccn23)cc1
3 | > 50 µM (inactive) | COc1ccccc1CNC(=O)CCCCn1c(=O)c2ccccc2n(Cc2ccc(C)cc2)c1=O
4 | > 50 µM (inactive) | COc1ccc(CC(=O)Nc2ccccc2-c2nc3ccccc3[nH]2)cc1OC
5 | > 50 µM (inactive) | O=C(NCc1ccc2c(c1)OCO2)c1cc2c(s1)CCC2
6 | > 50 µM (inactive) | Cc1ccc([N+](=O)[O-])cc1S(=O)(=O)Nc1cc2sc(=O)oc2c2ccccc12
7 | 43.6 µM | O=C(Cn1c(=O)n(Cc2ccccc2)c(=O)c2ncccc21)NCc1ccccc1Cl
8 | > 50 µM (inactive) | CC1=C(C)C(N(c2ccccc2)c2ccccc2)N(CCC(C)C)C1=O (centres undefined)
9 | > 50 µM (inactive) | Cc1ccc2c(c1)c(=O)c(C(=O)c1ccccc1)cn2CC(=O)Nc1ccccc1
10 | > 50 µM (inactive) | CCc1nc(SCC(=O)Nc2ccc(C)cc2C)c2oc3ccccc3c2n1
11 | > 50 µM (inactive) | COc1ccc(OC)c(NC(=O)c2sc(-c3ccccc3)nc2C)c1
12 | > 50 µM (inactive) | Cc1ccc(CNC(=O)CCCn2c(=O)c3sccc3n(CC(=O)Nc3cc(Cl)ccc3C)c2=O)cc1
13 | 40.2 µM | Cc1ccc(NC(=O)Nc2ccc(C)n(CC(=O)Nc3ccc(C)cc3C)c2=O)cc1
14 | > 50 µM (inactive) | COc1ccc(S(=O)(=O)N2CCc3ccccc32)cc1C(=O)Nc1ccc2[nH]c(=O)[nH]c2c1
15 | > 50 µM (inactive) | COc1cc2c(c(OCC(=O)Nc3ccc4c(c3)OCCO4)c1)C(=O)O[C@@H](C)CCCC(=O)CCCCC2
16 | > 50 µM (inactive) | O=C(CSc1ccc(-c2cccc([N+](=O)[O-])c2)nn1)Nc1cccc(F)c1
17 | > 50 µM (inactive) | O=C(c1ccco1)N1CCC2(CC1)CC1(CO2)Nc2ccccc2-n2cccc21 (centres undefined)
18 | > 50 µM (inactive) | COc1cccc(NC(=O)C(Sc2cccc(NC(=O)c3ccccc3F)c2)c2ccccc2)c1 (centres undefined)
19 | > 50 µM (inactive) | COc1ccc(-c2ccc3cc(C(=O)O)ccc3c2)cc1C12CC3CC(CC(C3)C1)C2
20 | > 50 µM (inactive) | O=C(/C=C/c1ccc(F)cc1)N1CCc2ccccc2C1
21 | > 50 µM (inactive) | COc1ccc(-c2cc(-c3ccc(F)cc3)[nH]c(=O)c2C#N)cc1
22 | > 50 µM (inactive) | O=C1Cc2ccccc2C(=O)N1c1ccc2c(c1)OCO2

Row | IC50 | Structure (SMILES)
23 | > 50 µM (inactive) | Cc1nc(-c2ccc(Cl)cc2)oc1C(=O)Nc1ccc(Cl)cc1
24 | > 50 µM (inactive) | CCCn1cc(C(=O)N2CCC3(CC2)CC2(CO3)Nc3ccccc3-n3cccc32)c(C)n1 (centres undefined)
25 | 34.1 µM | Cc1cccc(C(=O)Nc2cccc(SC(C(=O)Nc3ccc(Cl)c(C(=O)O)c3)c3ccccc3)c2)c1 (centres undefined)
26 | > 50 µM (inactive) | COc1ccc(NC(=O)Cn2c(=O)n(-c3ccc(CC(=O)NCc4ccco4)cc3)c(=O)c3ccccc32)cc1Cl
27 | > 50 µM (inactive) | O=C(O)c1ccccc1C(=O)Nc1ccc(SC(C(=O)Nc2cccc(Cl)c2)c2ccccc2)cc1 (centres undefined)
28 | > 50 µM (inactive) | O=C(CCn1c(=O)c2ccccc2n(Cc2ccccc2F)c1=O)NCc1ccco1
29 | 48.7 µM | O=C(Nc1cccc(Br)c1)c1cc(-c2cccnc2)n[nH]1
30 | > 50 µM (inactive) | Cn1c(CCNC(=O)c2[nH]nc3c2CCc2ccccc2-3)nc2ccccc21
31 | 9.52 µM | CO/C=C/C(=O)c1cc2cnc3c(=N)cc(NC(C)=O)c([nH]1)c23
32 | > 50 µM (inactive) | COc1ccccc1CNC(=O)CCCCn1c(=O)c2ccccc2n(CC(=O)Nc2ccc(C)cc2C)c1=O
33 | 17.7 µM | O=C(Nc1cccc([N+](=O)[O-])c1)Nc1ccc2snnc2c1
34 | > 50 µM (inactive) | CCC(=O)Nc1nc2cc(NC(=O)Nc3cccc(C)c3)ccc2s1
35 | > 50 µM (inactive) | CSCCC(NC(=O)c1ccccc1)c1nc2ccccc2n1CC(=O)Nc1ccccc1 (centres undefined)
36 | > 50 µM (inactive) | CC1CCCN(S(=O)(=O)c2ccc(-n3cnc(C(=O)NC4CC4)c3)nc2)C1 (centres undefined)
37 | 20.5 µM | FC(F)(F)c1ccc(Nc2nnnc3ccccc23)cc1
38 | 35.8 µM | O=C(CSc1nc2cc(C(F)(F)F)ccc2s1)NCC(=O)c1ccccc1
39 | > 50 µM (inactive) | COc1ccc(Cl)cc1NC(=O)COC(=O)c1cc2ccccc2oc1=O
40 | > 50 µM (inactive) | Cc1ccc2c(c1)N(C)C(=O)c1cc(NC(=O)c3ccc(F)cc3)ccc1O2
41 | 46.9 µM | COc1ccc(-c2nc3c(c(=O)c4ccccc4n3C)c(=O)n2Cc2ccco2)cc1
42 | > 50 µM (inactive) | O=C(NCc1ccc2c(c1)OCO2)c1cn(-c2cccc(Cl)c2)nn1
43 | > 50 µM (inactive) | Cc1ccc(NC(=O)Cn2c(=O)n(CC(=O)NCCc3ccccc3)c(=O)c3sccc32)cc1C
44 | > 50 µM (inactive) | CCOc1ccc2c(c1)c(=O)c(C(=O)c1ccc(C)cc1)cn2CC(=O)Nc1ccc(C)cc1

Row | IC50 | Structure (SMILES)
45 | > 50 µM (inactive) | O=C(Cn1c(=O)c2ccccc2c2ccccc21)Nc1ccc2c(c1)OCO2
46 | > 50 µM (inactive) | O=C(CSc1oc(-c2ccc(F)cc2)nc1S(=O)(=O)c1ccc(F)cc1)Nc1ccc(F)cc1
47 | > 50 µM (inactive) | COc1cc(NC(=O)Cc2ccccc2)ccc1NC(=O)c1cc2ccccc2o1
48 | > 50 µM (inactive) | CC(NC(=O)c1nc2n(n1)-c1ccccc1S(=O)(=O)N2)c1cc2ccccc2o1 (centres undefined)
49 | > 50 µM (inactive) | COc1ccc(OCCn2c(C3CC(=O)N(c4cccc(C)c4)C3)nc3ccccc32)cc1 (centres undefined)
50 | > 50 µM (inactive) | CCCC(O)CCCCCCCc1cc(O)cc(O)c1C(=O)OC(CCC)CCCCCCCc1cc(O)cc(O)c1 (centres undefined)
51 | 22.1 µM | COc1cc(-c2ccccc2)c(O)c(O)c1-c1ccccc1
52 | > 50 µM (inactive) | Cc1ccc(C(=O)c2cn(CC(=O)Nc3ccc4c(c3)OCO4)c3ccccc3c2=O)cc1
53 | > 50 µM (inactive) | CC(NC(=O)c1ccccc1)c1nc2ccccc2n1CC(=O)Nc1ccc(C#N)cc1 (centres undefined)
54 | > 50 µM (inactive) | Cn1c(=O)c2nc(-c3ccc(Cl)cc3)nnc2n(C)c1=O
55 | > 50 µM (inactive) | O=C(CSc1nc2c(cnn2-c2ccccc2)c(=O)[nH]1)Nc1ccc(Cl)cc1F
56 | > 50 µM (inactive) | COc1cc(Cl)c(NC(=O)C2Cc3ccccc3N2C(=O)c2ccccc2)c(OC)c1 (centres undefined)
57 | > 50 µM (inactive) | CCOc1ccc2cc3c(nc2c1)OC(=O)N(Cc1ccc(OC)cc1)C3
58 | > 50 µM (inactive) | Cc1cc(NC(=O)Cn2c(=O)n(Cc3ccco3)c(=O)c3ccc(C(=O)NCCc4ccccc4)cc32)n[nH]1
59 | > 50 µM (inactive) | COc1ccc(NC(=O)Cn2c(=O)n(CCC(=O)NCc3ccccc3)c(=O)c3sccc32)cc1Cl
60 | 30.7 µM | CCCCCCCCCCCCCCCc1cc(O)cc(O)c1C(=O)O
61 | > 50 µM (inactive) | O=C(NCCc1nc2ccccc2n1Cc1ccccc1F)c1ccc(Cl)cc1
62 | > 50 µM (inactive) | O=C(CSc1nnc2c3ccccc3nc(-c3ccco3)n12)N1CCCc2ccccc21
63 | > 50 µM (inactive) | O=C(Nc1nccs1)C1c2ccccc2C(=O)N(Cc2ccccc2)C12CCCC2 (centres undefined)
64 | > 50 µM (inactive) | COc1ccc([N+](=O)[O-])cc1NC(=O)COC(=O)c1ccc2[nH]c3c(c2c1)CCCC3
65 | > 50 µM (inactive) | O=C(CSc1ncnc2c1oc1ccccc12)NCCc1ccccc1
66 | > 50 µM (inactive) | COC(=O)c1ccc2c(=O)n(CCCCCC(=O)NCCc3ccccc3Cl)c(=O)[nH]c2c1

Row | IC50 | Structure (SMILES)
67 | > 50 µM (inactive) | Cn1c2ccccc2c(=O)c2c(=O)n(Cc3ccccc3)c(-c3ccco3)nc21
68 | > 50 µM (inactive) | O=C(CCCc1nnc2c(=O)n(-c3cccc(F)c3)ccn12)NCc1ccc(Cl)cc1
69 | > 50 µM (inactive) | COc1ccc(NC(=O)Cn2c(=O)n(Cc3ccco3)c(=O)c3ccc(C(=O)NC4CCCC4)cc32)cc1
70 | 19.5 µM | Cc1cc(O)c2c3c(c(O)cc2c1)C(=O)c1c(O)cccc1C3=O
71 | > 50 µM (inactive) | O=C1NC(=O)/C(=C/c2ccc(OC(=O)c3ccc(Cl)cc3Cl)cc2)N1
72 | > 50 µM (inactive) | COc1ccccc1N1CCN(C(=O)c2ccc3c(=O)n(CCc4ccccc4)c(=O)[nH]c3c2)CC1
73 | > 50 µM (inactive) | Cc1cccc(NC(=O)Nc2ccccc2OCc2cc(=O)n3cccc(C)c3n2)c1
74 | > 50 µM (inactive) | CCCCCCCCCC(CCCCCCCCCC(=O)O)O[C@H]1O[C@@H](COC(C)=O)[C@H](O)[C@@H](OC(=O)CC(=O)O)[C@H]1O (some centres undefined)
75 | > 50 µM (inactive) | CCOC(=O)c1ccc(NC(=O)Cn2c(=O)n(-c3ccc(CC(=O)NCc4ccco4)cc3)c(=O)c3ccccc32)cc1
76 | > 50 µM (inactive) | O=C(CCCCn1c(=O)c2ccccc2n(CC(=O)Nc2ccc3c(c2)OCCO3)c1=O)NCc1ccco1
77 | > 50 µM (inactive) | Cc1ccc2[nH]c(=O)c(-c3nc4ccccn4c3NCc3ccccc3)cc2c1
78 | > 50 µM (inactive) | CN1C(=O)COc2cc(-c3noc(C(=O)NCc4ccc(F)cc4)n3)ccc21
79 | > 50 µM (inactive) | O=c1[nH]c(C2CCN(S(=O)(=O)c3ccc(S(=O)(=O)NC4CC4)cc3)CC2)nc2c1nnn2Cc1c(Cl)cccc1Cl
80 | > 50 µM (inactive) | Cc1cccc(N2C(=O)/C(=C\c3cc(C#N)n(C)c3C)c3ccccc3C2=O)c1
81 | > 50 µM (inactive) | N#Cc1cccc(NC(=O)COC(=O)c2n[nH]c3ccccc23)c1
82 | 28.9 µM | COc1ccccc1-c1nc(-c2cn(-c3cccc(Cl)c3)nn2)no1
83 | > 50 µM (inactive) | Cc1nn(-c2ccc(F)cc2)c(C)c1S(=O)(=O)N1CCN(c2ccccn2)CC1
84 | > 50 µM (inactive) | O=C(Cn1c(=O)c2ccccc2n(CC(=O)Nc2cccc(F)c2)c1=O)NCCc1ccccc1
85 | > 50 µM (inactive) | O=C(CCCc1nnc2c(=O)n(-c3cccc(F)c3)ccn12)NCc1ccc(F)cc1
86 | 15.8 µM | O=C(O)C1C(C(=O)Nc2ccccc2)C2(c3ccccc3)C(=O)C1(c1ccccc1)C(c1ccccc1)=C2c1ccccc1 (centres undefined)

Row | Structure (SMILES) | IC50
87 | O=C1CSC(c2ccc3c(c2)OCO3)c2c(n(C3CCCCCC3)[nH]c2=O)N1 (centres undefined) | > 50 µM (inactive)
88 | COC1=C(C2=C(OC)C(=O)c3cc4c(c(O)c3C2=O)C(=O)OC(C)C4)C(=O)c2c(cc3c(c2O)C(=O)OC(C)C3)C1=O (centres undefined) | 44.7 µM
89 | CN(C)[C@H]1C(=O)C(C(N)=O)=C(O)C2(O)C(=O)C3=C(O)c4c(O)cccc4C(C)(O)C3C(O)C12 (some centres undefined) | 34.1 µM
